Several values for one entry are separate records, joined by “and”; a condition that tells them apart may be missing. Equal entries are not always repeated.
molecular target: T1, human GPR40 (Homo sapiens, UniProt O14842); experiment: GPR40 calcium flux assay, human GPR40; format: cell-based; settings: transfected HEK293 cells stably expressing human GPR40; multiple values = repeated testing; read-out: hGPR40 Ca^2+ Assay EC50
T1 construct: expressed in transfected cells
Method: Compounds were tested in a calcium flux assay using transfected HEK293 cells stably expressing either human GPR40 or rat GPR40. Human GPR40 expressing cells were cultured in DMEM-High Glucose media supplemented with 10% fetal bovine serum, 1×L-Glutamine, 1×Penicillin/Streptomycin and 500 μg/mL G418. Rat GPR40 expressing cells were cultured in DMEM-High Glucose media supplemented with 10% fetal bovine serum and 1 μg/mL puromycin. Cells were plated into poly-D-lysine coated 384-well plates and cultured overnight in a 37° C. humidified tissue culture incubator under 5% CO2/[…] atmosphere. On the day of the experiment, the culture media was replaced with assay buffer (HBSS, 20 mM HEPES, 0.1% BSA) and the cells incubated at 37° C. for 1 h. Calcium-sensitive fluorescent dye (Fluo 8 No-Wash Calcium Dye, ABD Bioquest) was then added and the cells incubated for another 30 min at 37° C. followed by 15 min at room temperature while protected from the light. The cell plate and a plate of diluted compounds of Formula (I) were loaded into a fluorescent plate reader that added compounds onto the cells while measuring the fluorescence intensity of each well. The plate reader recorded fluorescence intensity at 1 second intervals for 8 min and provided the data for analysis in an Excel format. EC50 values were calculated using Prism (GraphPad) software.

T1 sequence (O14842 whole entry): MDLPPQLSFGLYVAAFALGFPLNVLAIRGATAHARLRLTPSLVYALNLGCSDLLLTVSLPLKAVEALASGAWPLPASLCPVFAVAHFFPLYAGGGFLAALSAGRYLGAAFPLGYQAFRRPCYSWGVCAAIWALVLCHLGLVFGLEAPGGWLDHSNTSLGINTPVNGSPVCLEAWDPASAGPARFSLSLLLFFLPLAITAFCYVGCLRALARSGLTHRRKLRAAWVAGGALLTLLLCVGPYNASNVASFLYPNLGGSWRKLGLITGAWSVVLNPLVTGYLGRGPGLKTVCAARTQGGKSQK

EC50	SMILES
0.053 µM and 0.051 µM and 0.022 µM and 0.013 µM and 0.087 µM and 0.071 µM	COc1ccc(F)c(-c2scc(COc3cccc([C@@H](CC(=O)O)C4CC4)c3)c2C2=CCCC2(C)C)c1 [Cpd 13, (3S)-3-cyclopropyl-3-[3-[[4-(5,5-dimethylcyclopenten-1-yl)-5-(2-fluoro-5-methoxy-phenyl)-3-thienyl]methoxy]phenyl]propanoic acid]
0.087 µM and 0.065 µM	CC1(C)CCC=C1c1c(COc2cccc([C@@H](CC(=O)O)C3CC3)c2)csc1-c1ccsc1 [Cpd 16, (3S)-3-cyclopropyl-3-[3-[[4-(5,5-dimethylcyclopenten-1-yl)-5-(3-thienyl)-3-thienyl]methoxy]phenyl]propanoic acid]
0.242 µM and 0.232 µM	CN(C)c1cccc(-c2scc(COc3cccc([C@@H](CC(=O)O)C4CC4)c3)c2C2=CCCC2(C)C)c1 [Cpd 17, (3S)-3-cyclopropyl-3-[3-[[5-[3-(dimethylamino)phenyl]-4-(5,5-dimethylcyclopenten-1-yl)-3-thienyl]methoxy]phenyl]propanoic acid]
0.305 µM and 0.152 µM	COc1ccc(-c2scc(COc3cccc([C@@H](CC(=O)O)C4CC4)c3)c2C2=CCCC2(C)C)c(F)c1 [Cpd 18, (3S)-3-cyclopropyl-3-[3-[[4-(5,5-dimethylcyclopenten-1-yl)-5-(2-fluoro-4-methoxy-phenyl)-3-thienyl]methoxy]phenyl]propanoic acid]
0.079 µM and 0.071 µM	CC1(C)CCC=C1c1c(COc2cccc([C@@H](CC(=O)O)C3CC3)c2)csc1-c1ccccc1 [Cpd 20, (3S)-3-cyclopropyl-3-[3-[[4-(5,5-dimethylcyclopenten-1-yl)-5-phenyl-3-thienyl]methoxy]phenyl]propanoic acid]
0.11 µM and 0.066 µM	CC1(C)CCC=C1c1c(COc2cccc([C@@H](CC(=O)O)C3CC3)c2)csc1-c1ccccc1F [Cpd 21, (3S)-3-cyclopropyl-3-[3-[[4-(5,5-dimethylcyclopenten-1-yl)-5-(2-fluorophenyl)-3-thienyl]methoxy]phenyl]propanoic acid]
0.047 µM and 0.041 µM	COc1ccccc1-c1scc(COc2cccc([C@@H](CC(=O)O)C3CC3)c2)c1C1=CCCC1(C)C [Cpd 22, (3S)-3-cyclopropyl-3-[3-[[4-(5,5-dimethylcyclopenten-1-yl)-5-(2-methoxyphenyl)-3-thienyl]methoxy]phenyl]propanoic acid]
0.016 µM and 0.015 µM	COc1cc(OC)cc(-c2scc(COc3cccc([C@@H](CC(=O)O)C4CC4)c3)c2C2=CCCC2(C)C)c1 [Cpd 23, (3S)-3-cyclopropyl-3-[3-[[5-(3,5-dimethoxyphenyl)-4-(5,5-dimethylcyclopenten-1-yl)-3-thienyl]methoxy]phenyl]propanoic acid]
0.026 µM and 0.024 µM	COc1cccc(-c2scc(COc3cccc([C@@H](CC(=O)O)C4CC4)c3)c2C2=CCCC2(C)C)c1 [Cpd 26, (3S)-3-cyclopropyl-3-[3-[[4-(5,5-dimethylcyclopenten-1-yl)-5-(3-methoxyphenyl)-3-thienyl]methoxy]phenyl]propanoic acid]
0.083 µM and 0.074 µM	COc1cncc(-c2scc(COc3cccc([C@@H](CC(=O)O)C4CC4)c3)c2C2=CCCC2(C)C)c1 [Cpd 28, (3S)-3-cyclopropyl-3-[3-[[4-(5,5-dimethylcyclopenten-1-yl)-5-(5-methoxy-3-pyridyl)-3-thienyl]methoxy]phenyl]propanoic acid]
0.258 µM and 0.162 µM	COc1cc(-c2scc(COc3cccc([C@@H](CC(=O)O)C4CC4)c3)c2C2=CCCC2(C)C)ccn1 [Cpd 31, (3S)-3-cyclopropyl-3-[3-[[4-(5,5-dimethylcyclopenten-1-yl)-5-(2-methoxy-4-pyridyl)-3-thienyl]methoxy]phenyl]propanoic acid]

The next lines start with the compound.

SMILES	EC50
COc1ccc(F)c(-c2onc(COc3cccc([C@@H](CC(=O)O)C4CC4)c3)c2OC2CC(C)(C)CC(C)(C)C2)c1 [Cpd 3, (3S)-3-cyclopropyl-3-[3-[[5-(2-fluoro-5-methoxy-phenyl)-4-(3,3,5,5-tetramethylcyclohexoxy)isoxazol-3-yl]methoxy]phenyl]propanoic acid]	0.005 µM
COc1ccc(F)c(-c2onc(COc3cccc([C@@H](CC(=O)O)C4CC4)c3)c2OCC2C(C)(C)C2(C)C)c1 [Cpd 11, (3S)-3-cyclopropyl-3-[3-[[5-(2-fluoro-5-methoxy-phenyl)-4-[(2,2,3,3-tetramethylcyclopropyl)methoxy]isoxazol-3-yl]methoxy]phenyl]propanoic acid]	0.058 µM
COc1cc(-c2onc(COc3cccc([C@@H](CC(=O)O)C4CC4)c3)c2CC(C)C)c(F)cn1 [Cpd 12, (3S)-3-cyclopropyl-3-[3-[[5-(5-fluoro-2-methoxy-4-pyridyl)-4-isobutyl-isoxazol-3-yl]methoxy]phenyl]propanoic acid]	1.27 µM
COc1ccc(F)c(-c2scc(COc3cccc([C@@H](CC(=O)O)C4CC4)c3)c2C2CC2)c1 [Cpd 14, (3S)-3-cyclopropyl-3-[3-[[4-cyclopropyl-5-(2-fluoro-5-methoxy-phenyl)-3-thienyl]methoxy]phenyl]propanoic acid]	0.108 µM and 0.089 µM
COc1ccc(F)c(-c2scc(COc3cccc([C@@H](CC(=O)O)C4CC4)c3)c2C(C)C(F)(F)F)c1 (stereo partly drawn) [Cpd 19, (3S)-3-cyclopropyl-3-[3-[[5-(2-fluoro-5-methoxy-phenyl)-4-(2,2,2-trifluoro-1-methyl-ethyl)-3-thienyl]methoxy]phenyl]propanoic acid]	0.253 µM and 0.128 µM
CC1(C)CCC=C1c1c(COc2cccc([C@@H](CC(=O)O)C3CC3)c2)csc1-c1cccc2[nH]ccc12 [Cpd 24, (3S)-3-cyclopropyl-3-[3-[[4-(5,5-dimethylcyclopenten-1-yl)-5-(1H-indol-4-yl)-3-thienyl]methoxy]phenyl]propanoic acid]	0.068 µM and 0.066 µM
CC1(C)CCC=C1c1c(COc2cccc([C@@H](CC(=O)O)C3CC3)c2)csc1-c1cccc2occc12 [Cpd 25, (3S)-3-[3-[[5-(benzofuran-4-yl)-4-(5,5-dimethylcyclopenten-1-yl)-3-thienyl]methoxy]phenyl]-3-cyclopropyl-propanoic acid]	0.101 µM and 0.068 µM
COc1cc(-c2scc(COc3cccc([C@@H](CC(=O)O)C4CC4)c3)c2C2=CCCC2(C)C)c(F)cn1 [Cpd 27, (3S)-3-cyclopropyl-3-[3-[[4-(5,5-dimethylcyclopenten-1-yl)-5-(5-fluoro-2-methoxy-4-pyridyl)-3-thienyl]methoxy]phenyl]propanoic acid]	0.053 µM and 0.042 µM
COc1ccc(F)c(-c2sc(Cl)c(COc3cccc([C@@H](CC(=O)O)C4CC4)c3)c2C(C)C(F)(F)F)c1 (stereo partly drawn) [Cpd 29, (3S)-3-[3-[[2-chloro-5-(2-fluoro-5-methoxy-phenyl)-4-(2,2,2-trifluoro-1-methyl-ethyl)-3-thienyl]methoxy]phenyl]-3-cyclopropyl-propanoic acid]	0.32 µM and 0.211 µM
COc1ccc(F)c(-c2snc(COc3cccc([C@@H](CC(=O)O)C4CC4)c3)c2C2=CCCC2(C)C)c1 [Cpd 30, (3S)-3-cyclopropyl-3-[3-[[4-(5,5-dimethylcyclopenten-1-yl)-5-(2-fluoro-5-methoxy-phenyl)isothiazol-3-yl]methoxy]phenyl]propanoic acid]	0.032 µM and 0.027 µM
COc1ccc(F)c(-c2onc(COc3cccc([C@@H](CC(=O)O)C4CC4)c3)c2-c2ccc(C)s2)c1 [Cpd 32, (3S)-3-cyclopropyl-3-[3-[[5-(2-fluoro-5-methoxy-phenyl)-4-(5-methyl-2-thienyl)isoxazol-3-yl]methoxy]phenyl]propanoic acid]	0.031 µM and 0.027 µM
COc1ccc(F)c(-c2onc(COc3cccc([C@@H](CC(=O)O)C4CC4)c3)c2-c2sccc2C)c1 [Cpd 33, (3S)-3-cyclopropyl-3-[3-[[5-(2-fluoro-5-methoxy-phenyl)-4-(3-methyl-2-thienyl)isoxazol-3-yl]methoxy]phenyl]propanoic acid]	0.215 µM and 0.178 µM
COc1ccc(F)c(-c2onc(COc3cccc([C@@H](CC(=O)O)C4CC4)c3)c2-c2ccccc2)c1 [Cpd 34, (3S)-3-cyclopropyl-3-[3-[[5-(2-fluoro-5-methoxy-phenyl)-4-phenyl-isoxazol-3-yl]methoxy]phenyl]propanoic acid]	0.168 µM and 0.14 µM
COc1ccc(F)c(-c2onc(COc3cccc([C@@H](CC(=O)O)C4CC4)c3)c2CC(C)C)c1 [Cpd 35, (3S)-3-cyclopropyl-3-[3-[[5-(2-fluoro-5-methoxy-phenyl)-4-isobutyl-isoxazol-3-yl]methoxy]phenyl]propanoic acid]	0.008 µM and 0.006 µM
COc1ccc(F)c(-c2onc(COc3cccc([C@@H](CC(=O)O)C4CC4)c3)c2C=C(C)C)c1 [Cpd 36, (3S)-3-cyclopropyl-3-[3-[[5-(2-fluoro-5-methoxy-phenyl)-4-(2-methylprop-1-enyl)isoxazol-3-yl]methoxy]phenyl]propanoic acid]	0.03 µM and 0.026 µM
COc1ccc(F)c(-c2onc(COc3cccc([C@@H](CC(=O)O)C4CC4)c3)c2C2CC2)c1 [Cpd 37, (3S)-3-cyclopropyl-3-[3-[[4-cyclopropyl-5-(2-fluoro-5-methoxy-phenyl)isoxazol-3-yl]methoxy]phenyl]propanoic acid]	0.065 µM and 0.055 µM
COc1ccc(F)c(-c2onc(COc3cccc([C@@H](CC(=O)O)C4CC4)c3)c2OCC(C)C)c1 [Cpd 39, (3S)-3-cyclopropyl-3-[3-[[5-(2-fluoro-5-methoxy-phenyl)-4-isobutoxy-isoxazol-3-yl]methoxy]phenyl]propanoic acid]	0.005 µM and 0.004 µM
COc1ccc(F)c(-c2onc(COc3cccc([C@@H](CC(=O)O)C4CC4)c3)c2OC2CCCC2)c1 [Cpd 40, (3S)-3-[3-[[4-(cyclopentoxy)-5-(2-fluoro-5-methoxy-phenyl)isoxazol-3-yl]methoxy]phenyl]-3-cyclopropyl-propanoic acid]	0.008 µM and 0.007 µM

Reference: patent publication US9920040B2, “GPR40 agonists for the treatment of type II diabetes” (Janssen Pharmaceutica NV, priority 2015, dated 2018)
